# Measured values taken from ChEMBL document CHEMBL5523722, “Design, Synthesis, and Activity Evaluation of Novel Benzazole Bifunctional Antifungal Inhibitors with an LDH Carrier” (J Med Chem, 2024).
# Assays:
# [1] = tested on: Cryptococcus neoformans; assay: microbe, parasite or virus in culture; settings: ZKCC 2209, 64 h
# Description: Antifungal activity against Cryptococcus neoformans ZKCC 2209 assessed as inhibition of fungal growth incubated for 64 hrs by liquid medium dilution method
# [2] = tested on: Nakaseomyces glabratus; assay: microbe, parasite or virus in culture; settings: 64 h
# Description: Antifungal activity against Candida glabrata assessed as inhibition of fungal growth incubated for 64 hrs by liquid medium dilution method
# [3] = tested on: Candida tropicalis; assay: microbe, parasite or virus in culture; settings: ATCC 1369, 64 h
# Description: Antifungal activity against Candida tropicalis ATCC 1369 assessed as inhibition of fungal growth incubated for 64 hrs by liquid medium dilution method
# [4] = tested on: Aspergillus fumigatus; assay: microbe, parasite or virus in culture; settings: KM8001, 64 h
# Description: Antifungal activity against Aspergillus fumigatus KM8001 assessed as inhibition of fungal growth incubated for 64 hrs by liquid medium dilution method
# [5] = tested on: Candida albicans; assay: microbe, parasite or virus in culture; settings: ATCC SC5314, 64 h
# Description: Antifungal activity against Candida albicans ATCC SC5314 assessed as inhibition of fungal growth incubated for 64 hrs by liquid medium dilution method
# [6] = tested on: Candida albicans; assay: microbe, parasite or virus in culture; settings: Candida albicans, 904, 64 h
# Description: Antifungal activity against fluconazole-resistant Candida albicans 904 assessed as inhibition of fungal growth incubated for 64 hrs by liquid medium dilution method
# [7] = tested on: Candida albicans; assay: microbe, parasite or virus in culture; settings: CaR, 64 h
# Description: Antifungal activity against fluconazole-resistant Candida albicans CaR assessed as inhibition of fungal growth incubated for 64 hrs by liquid medium dilution method
# [8] = tested on: Candida albicans; assay: microbe, parasite or virus in culture; settings: 17#, 64 h
# Description: Antifungal activity against fluconazole-resistant Candida albicans 17# assessed as inhibition of fungal growth incubated for 64 hrs by liquid medium dilution method
# [9] = tested on: Candida albicans; assay: microbe, parasite or virus in culture; settings: Candida albicans, 901, 64 h
# Description: Antifungal activity against fluconazole-resistant Candida albicans 901 assessed as inhibition of fungal growth incubated for 64 hrs by liquid medium dilution method
# [10] = tested on: Candida albicans; assay: microbe, parasite or virus in culture; settings: Candida albicans, 632, 64 h
# Description: Antifungal activity against fluconazole-resistant Candida albicans 632 assessed as inhibition of fungal growth incubated for 64 hrs by liquid medium dilution method
# [11] = target: Lanosterol 14-alpha demethylase (Candida albicans (strain SC5314 / ATCC MYA-2876) (Yeast), UniProt P10613)
# Sequence of Lanosterol 14-alpha demethylase (P10613 whole entry): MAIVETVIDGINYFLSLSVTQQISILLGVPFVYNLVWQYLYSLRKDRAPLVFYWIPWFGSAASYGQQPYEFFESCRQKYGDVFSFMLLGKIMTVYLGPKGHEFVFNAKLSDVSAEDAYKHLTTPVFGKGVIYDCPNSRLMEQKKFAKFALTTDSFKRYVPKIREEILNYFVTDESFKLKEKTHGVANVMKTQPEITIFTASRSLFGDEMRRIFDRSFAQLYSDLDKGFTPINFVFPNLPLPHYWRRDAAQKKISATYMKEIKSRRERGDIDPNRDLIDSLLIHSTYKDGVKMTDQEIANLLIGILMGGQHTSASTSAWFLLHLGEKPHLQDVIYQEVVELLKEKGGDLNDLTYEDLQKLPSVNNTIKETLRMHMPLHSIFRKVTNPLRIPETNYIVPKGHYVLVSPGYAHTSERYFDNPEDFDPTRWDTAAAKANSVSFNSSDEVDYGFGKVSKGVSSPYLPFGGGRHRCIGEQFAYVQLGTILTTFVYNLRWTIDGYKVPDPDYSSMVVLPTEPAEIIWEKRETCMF
# Description: Inhibition of candida albicans CYP51 14alpha demethylase activity incubated for 30 mins by HPLC analysis
Compound,MIC50 [1] [µg/mL],MIC50 [2] [µg/mL],MIC50 [3] [µg/mL],MIC50 [4] [µg/mL],MIC50 [5] [µg/mL],MIC50 [6] [µg/mL],MIC50 [7] [µg/mL],MIC50 [8] [µg/mL],MIC50 [9] [µg/mL],MIC50 [10] [µg/mL],IC50 [11] [nM]
Cc1c(CN2CCC(CNCC(O)(Cn3ccnc3)c3ccc(Cl)cc3Cl)CC2)cccc1-c1ccccc1 (centres undefined),4,0.5,2,4,1,–,–,–,–,–,–
Cc1c(CN2CCCC(C(=O)NCC(O)(Cn3cncn3)c3ccc(Cl)cc3Cl)C2)cccc1-c1ccccc1 (centres undefined),4,0.5,2,≥ 8,0.5,–,–,–,–,–,–
CC(=O)N1CCN(c2ccc(OCC3COC(Cn4ccnc4)(c4ccc(Cl)cc4Cl)O3)cc2)CC1 (centres undefined) [KETOCONAZOLE],1,0.5,0.25,4,0.25,≥ 8,4,2,4,≥ 8,–
Cc1c(CN2CCCC(C(=O)NCC(O)(Cn3ccnc3)c3ccc(Cl)cc3Cl)C2)cccc1-c1ccccc1 (centres undefined),≥ 8,1,0.5,≥ 8,0.5,–,–,–,–,–,–
Cc1c(CN2CCCC(C(=O)NCC(Cc3ccccc3)Cn3ccnc3)C2)cccc1-c1ccccc1 (centres undefined),2,2,1,4,0.5,–,–,–,–,–,–
Cc1c(CN2CCCC(C(=O)NCC(O)(Cn3ccnc3)c3ccc(Cl)cc3)C2)cccc1-c1ccccc1 (centres undefined),4,1,2,≥ 8,1,–,–,–,–,–,–
Cc1c(CN2CCCC(C(=O)NCC(O)(Cn3cncn3)c3ccc(Cl)cc3)C2)cccc1-c1ccccc1 (centres undefined),1,0.5,0.25,4,0.25,4,≥ 8,2,≥ 8,4,256
OC(Cn1cncn1)(Cn1cncn1)c1ccc(F)cc1F [FLUCONAZOLE],2,0.5,0.5,≥ 8,0.5,≥ 8,≥ 8,≥ 8,≥ 8,≥ 8,98
Cc1c(CN2CCC(CNCC(O)(Cn3cncn3)c3ccc(Cl)cc3)CC2)cccc1-c1ccccc1 (centres undefined),4,1,0.5,≥ 8,0.5,–,–,–,–,–,–
Cc1c(CN2CCC(CNCC(O)(Cn3ccnc3)c3ccc(Cl)cc3)CC2)cccc1-c1ccccc1 (centres undefined),2,0.5,1,≥ 8,1,–,–,–,–,–,–
O=C(NCC(Cc1ccccc1)Cn1ccnc1)C1CCCN(Cc2ccc(-c3ccccc3)cc2)C1 (centres undefined),4,0.5,2,≥ 8,1,–,–,–,–,–,–
Cc1c(CN2CCC(NCC(O)(Cn3ccnc3)c3ccc(Cl)cc3)CC2)cccc1-c1ccccc1 (centres undefined),2,1,0.5,4,0.25,–,–,–,–,–,–
O=C(NCC(Cc1ccccc1)Cn1cncn1)C1CCCN(Cc2ccc(-c3ccccc3)cc2)C1 (centres undefined),2,2,1,4,0.5,–,–,–,–,–,–
Cc1c(CN2CCCC(C(=O)NCC(Cc3ccccc3)Cn3cncn3)C2)cccc1-c1ccccc1 (centres undefined),≥ 8,0.5,0.5,≥ 8,0.25,–,–,–,–,–,–
Cc1c(CN2CCC(NCC(O)(Cn3ccnc3)c3ccc(Cl)cc3Cl)CC2)cccc1-c1ccccc1 (centres undefined),1,0.5,0.5,4,0.125,2,4,2,4,2,157
Cc1c(CN2CCC(NCC(O)(Cn3cncn3)c3ccc(Cl)cc3)CC2)cccc1-c1ccccc1 (centres undefined),0.5,0.25,0.25,2,0.25,2,2,1,2,1,113
Cc1c(CN2CCC(CNCC(O)(Cn3cncn3)c3ccc(Cl)cc3Cl)CC2)cccc1-c1ccccc1 (centres undefined),2,1,2,≥ 8,2,–,–,–,–,–,–
Cc1c(CN2CCC(NCC(O)(Cn3cncn3)c3ccc(Cl)cc3Cl)CC2)cccc1-c1ccccc1 (centres undefined),2,1,2,4,0.5,–,–,–,–,–,–
